How the values were obtained:
Type in all cases: biochemical
[1] = biological target: T1, MMP-16 (Homo sapiens, UniProt P51512); test: In vitro MMP-16 inhibition test
T1 construct: purchased R&D Systems 1785-MP
Text: (§1) The MMP-mediated amidolytic cleavage of a suitable peptide substrate leads to an increase in fluorescent light here too. The signal intensity of the fluorescent light is directly proportional to the enzyme activity. The active concentration of a test compound at which half the enzyme is inhibited (50% signal intensity of the fluorescent light) is reported as the IC50 value.
Recombinant MMP-16 (from R&D Systems, 1785-MP) is enzymatically activated in accordance with the manufacturer's instructions using recombinant furin (from R&D Systems, 1503-SE). 1 μl of the test compound to be analysed (as a solution in DMSO, suitable concentrations e.g. 1 nM to 30 μM) is pipetted into 24 μl of activated enzyme (final concentration e.g. 1 nM) in reaction buffer (50 mM Tris/HCl pH 7.5, 10 mM CaCl2, 150 mM NaCl, 0.05% Brij®-35) in a white 384-hole microtiter plate (MTP). The enzymatic reaction is started by adding the intramolecularly quenched Mca-Lys-Pro-Leu-Gly-Leu-Dpa(Dnp)-Ala-Arg-NH2 substrate (final concentration, for example, 5 μM; R&D Systems, ES-010), so as to result in a total test volume of 50 The course of the MMP-16 reaction is measured by measuring the fluorescence intensity (excitation 320 nm, emission 410 nm) over a suitable period of time (for example over 120 min at a temperature of 32° C.).

[2] = biological target: T2, MMP-2 (Homo sapiens, UniProt P08253); test: In vitro MMP-2 inhibition test
T2 construct: purchased R&D Systems 902-MP
T2 sequence (P08253 110-660): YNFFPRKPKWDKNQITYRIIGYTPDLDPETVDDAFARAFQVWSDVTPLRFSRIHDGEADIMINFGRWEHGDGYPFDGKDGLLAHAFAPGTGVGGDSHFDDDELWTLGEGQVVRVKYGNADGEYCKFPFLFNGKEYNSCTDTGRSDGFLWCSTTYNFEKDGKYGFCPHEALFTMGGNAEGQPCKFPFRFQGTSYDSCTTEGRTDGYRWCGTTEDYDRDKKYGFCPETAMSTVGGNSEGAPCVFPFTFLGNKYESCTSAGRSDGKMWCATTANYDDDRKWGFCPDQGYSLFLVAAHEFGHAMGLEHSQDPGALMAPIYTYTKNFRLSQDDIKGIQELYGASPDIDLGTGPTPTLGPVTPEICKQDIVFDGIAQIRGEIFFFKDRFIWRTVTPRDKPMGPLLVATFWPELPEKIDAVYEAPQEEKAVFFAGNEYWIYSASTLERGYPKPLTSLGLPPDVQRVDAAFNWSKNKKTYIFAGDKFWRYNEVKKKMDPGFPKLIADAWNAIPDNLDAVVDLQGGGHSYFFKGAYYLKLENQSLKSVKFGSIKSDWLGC
Text: as §1
(§2) Recombinant MMP-2 (from R&D Systems, 902-MP) is chemically activated in accordance with the manufacturer's instructions using APMA. 1 μl of the test compound to be analysed (as a solution in DMSO, suitable concentrations, for example, 1 nM to 30 μM) is pipetted into 24 μl of activated enzyme (final concentration, for example, 2 nM) in reaction buffer (50 mM Tris/HCl pH 7.5, 10 mM CaCl2, 150 mM NaCl, 0.05% Brij®-35) in a white 384-hole microtiter plate (MTP). The enzymatic reaction is started by adding the intramolecularly quenched Mca-Pro-Leu-Gly-Leu-Dpa(Dnp)-Ala-Arg-NH2 substrate (final concentration, for example, 10 μM; R&D Systems, ES-001), so as to result in a total test volume of 50 μl. The course of the MMP-2 reaction is measured by measuring the fluorescence intensity (excitation 320 nm, emission 410 nm) over a suitable period of time (for example over 120 min at a temperature of 32° C.).

[3] = biological target: T3, MMP-1 (Homo sapiens, UniProt P03956); test: In vitro MMP-1 inhibition test
T3 construct: purchased R&D Systems 901-MP
T3 sequence (P03956 100-469): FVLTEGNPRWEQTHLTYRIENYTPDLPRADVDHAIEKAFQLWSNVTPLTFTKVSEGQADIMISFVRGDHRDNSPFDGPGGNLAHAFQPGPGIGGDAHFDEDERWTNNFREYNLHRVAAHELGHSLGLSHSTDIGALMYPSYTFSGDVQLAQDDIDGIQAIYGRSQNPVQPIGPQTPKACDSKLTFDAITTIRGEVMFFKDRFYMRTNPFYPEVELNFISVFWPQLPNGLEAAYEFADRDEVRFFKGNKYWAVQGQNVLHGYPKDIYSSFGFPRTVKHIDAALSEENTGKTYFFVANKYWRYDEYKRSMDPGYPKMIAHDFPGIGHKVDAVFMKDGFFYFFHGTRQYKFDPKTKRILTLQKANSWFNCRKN
Text: as §1
as §2, with “MMP-1” for “MMP-2”, “901-MP)” for “902-MP)”

T1 sequence (P51512 120-564 limits assumed): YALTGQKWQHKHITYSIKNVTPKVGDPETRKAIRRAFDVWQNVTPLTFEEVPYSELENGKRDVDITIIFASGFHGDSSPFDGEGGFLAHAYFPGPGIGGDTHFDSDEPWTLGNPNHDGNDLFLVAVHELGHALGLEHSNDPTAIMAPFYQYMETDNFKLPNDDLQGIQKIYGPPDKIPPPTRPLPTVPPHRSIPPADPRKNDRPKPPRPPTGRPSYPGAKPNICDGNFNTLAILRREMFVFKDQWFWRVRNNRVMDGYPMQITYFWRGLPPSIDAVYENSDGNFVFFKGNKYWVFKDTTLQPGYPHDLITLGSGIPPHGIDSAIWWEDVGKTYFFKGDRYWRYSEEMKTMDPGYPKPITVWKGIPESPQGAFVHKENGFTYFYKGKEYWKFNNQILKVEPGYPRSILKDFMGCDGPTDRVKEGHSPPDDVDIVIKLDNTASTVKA

Structure (SMILES) | IC50 [1] [µM] | IC50 [2] [µM] | IC50 [3] [µM]
O=C(O)[C@H]1[C@H](Cn2nnc3ccccc3c2=O)CC[C@@H]1C(=O)c1ccc(OCc2ccc(F)cc2)cc1 (racemic) [Example 1, (+/−)-(1RS,2RS,5SR)-2-{4-[(4-Fluorobenzyl)oxy]benzoyl}-5-[(4-oxo-1,2,3-benzotriazin-3(4H)-yl)methyl]cyclopentanecarboxylic acid] | 0.13 | 0.0093 | 5.2
O=C(O)[C@H]1[C@H](Cn2nnc3ccccc3c2=O)CC[C@@H]1C(=O)c1ccc(OCc2cccc(Cl)c2)cc1 (racemic) [Example 2, (+/−)-(1RS,2RS,5SR)-2-{4-[(3-Chlorobenzyl)oxy]benzoyl}-5-[(4-oxo-1,2,3-benzotriazin-3(4H)-yl)methyl]cyclopentanecarboxylic acid] | 1 | 0.29 | > 40
O=C(O)[C@H]1[C@H](Cn2nnc3ccccc3c2=O)CC[C@@H]1C(=O)c1ccc(OCc2ccc(Cl)c(Cl)c2)cc1 (racemic) [Example 3, (+/−)-(1RS,2RS,5SR)-2-{4-[(3,4-Dichlorobenzyl)oxy]benzoyl}-5-[(4-oxo-1,2,3-benzotriazin-3(4H)-yl)methyl]cyclopentanecarboxylic acid] | 4 | 0.19 | 16
O=C(O)[C@H]1[C@H](Cn2nnc3ccccc3c2=O)CC[C@@H]1C(=O)c1ccc(OCC2CCCC2)cc1 (racemic) [Example 4, (+/−)-(1RS,2RS,5SR)-2-[4-(Cyclopentylmethoxy)benzoyl]-5-[(4-oxo-1,2,3-benzotriazin-3(4H)-yl)methyl]cyclopentanecarboxylic acid] | 0.17 | 0.084 | 28
O=C(O)[C@H]1[C@H](Cn2nnc3ccccc3c2=O)CC[C@@H]1C(=O)c1ccc(OCCC2CCCCC2)cc1 (racemic) [Example 5, (+/−)-(1RS,2RS,5SR)-2-[4-(2-Cyclohexylethoxy)benzoyl]-5-[(4-oxo-1,2,3-benzotriazin-3(4H)-yl)methyl]cyclopentanecarboxylic acid] | 2.5 | 0.22 | > 40
O=C(O)[C@H]1[C@H](Cn2nnc3ccc(C(F)(F)F)cc3c2=O)CC[C@@H]1C(=O)c1ccc(OCc2ccccc2)cc1 (racemic) [Example 11, (+/−)-(1RS,2RS,5SR)-2-[4-(Benzyloxy)benzoyl]-5-{[4-oxo-6-(trifluoromethyl)-1,2,3-benzotriazin-3(4H)-yl]methyl}cyclopentanecarboxylic acid] | 4.5 | 0.21 | 3.8
O=C(O)[C@H]1[C@H](Cn2nnc3ccc(C(F)(F)F)cc3c2=O)CC[C@@H]1C(=O)c1ccc(OCc2ccc(F)cc2)cc1 (racemic) [Example 12, (+/−)-(1RS,2RS,5SR)-2-{4-[(4-Fluorobenzyl)oxy]benzoyl}-5-{[4-oxo-6-(trifluoromethyl)-1,2,3-benzotriazin-3(4H)-yl]methyl}cyclopentanecarboxylic acid] | 0.086 | 0.042 | 2.5

Now from value to molecule:

IC50 [1] [µM] | IC50 [2] [µM] | IC50 [3] [µM] | Structure (SMILES)
0.52 | 0.48 | 8.3 | Cc1cccc(COc2ccc(C(=O)[C@H]3CC[C@@H](Cn4nnc5ccc(C(F)(F)F)cc5c4=O)[C@@H]3C(=O)O)cc2)c1 (racemic) [Example 15, (+/−)-(1RS,2RS,5SR)-2-{4-[(3-Methylbenzyl)oxy]benzoyl}-5-{[4-oxo-6-(trifluoromethyl)-1,2,3-benzotriazin-3(4H)-yl]methyl}cyclopentanecarboxylic acid]
4 | 2 | > 40 | O=C(O)[C@H]1[C@H](Cn2nnc3ccc(C(F)(F)F)cc3c2=O)CC[C@@H]1C(=O)c1ccc(OCc2cccc(C(F)(F)F)c2)cc1 (racemic) [Example 18, (+/−)-(1RS,2SR,5RS)-2-{[4-Oxo-6-(trifluoromethyl)-1,2,3-benzotriazin-3(4H)-yl]methyl}-5-(4-{[3-(trifluoromethyl)benzyl]oxy}benzoyl)cyclopentanecarboxylic acid]
14 | 4.6 | > 40 | O=C(O)[C@H]1[C@H](Cn2nnc3ccc(C(F)(F)F)cc3c2=O)CC[C@@H]1C(=O)c1ccc(OCCCc2ccccc2)cc1 (racemic) [Example 39, (+/−)-(1RS,2SR,5RS)-2-{[4-Oxo-6-(trifluoromethyl)-1,2,3-benzotriazin-3(4H)-yl]methyl}-5-[4-(3-phenylpropoxy)benzoyl]cyclopentanecarboxylic acid]
0.92 | 0.44 | 3.8 | O=C(O)[C@H]1[C@H](Cn2nnc3ccc(C(F)(F)F)cc3c2=O)CC[C@@H]1C(=O)c1ccc(OCC2CCCCC2)cc1 (racemic) [Example 40, (+/−)-(1RS,2RS,5SR)-2-[4-(Cyclohexylmethoxy)benzoyl]-5-{[4-oxo-6-(trifluoromethyl)-1,2,3-benzotriazin-3(4H)-yl]methyl}cyclopentanecarboxylic acid]
> 40 | 2.8 | > 40 | O=C(O)[C@H]1[C@H](Cn2nnc3ccc(C(F)(F)F)cc3c2=O)CC[C@@H]1C(=O)c1ccc(OCCCC2CCCCC2)cc1 (racemic) [Example 56, (+/−)-(1RS,2RS,5SR)-2-{4-(3-Cyclohexylpropoxy)benzoyl}-5-{[4-oxo-6-(trifluoromethyl)-1,2,3-benzotriazin-3(4H)-yl]methyl}cyclopentanecarboxylic acid]
> 40 | 4 | 15 | O=C(O)[C@H]1[C@H](Cn2nnc3ccc(C(F)(F)F)cc3c2=O)CC[C@@H]1C(=O)c1ccc(SCc2ccc(Cl)c(Cl)c2)cc1 (racemic) [Example 79, (+/−)-(1RS,2RS,5SR)-2-{4-[(3,4-Dichlorobenzyl)sulphanyl]benzoyl}-5-{[4-oxo-6-(trifluoromethyl)-1,2,3-benzotriazin-3(4H)-yl]methyl}cyclopentanecarboxylic acid]
0.67 | 0.19 | 2.5 | CCCCCSc1ccc(C(=O)[C@H]2CC[C@@H](Cn3nnc4ccc(C(F)(F)F)cc4c3=O)[C@@H]2C(=O)O)cc1 (racemic) [Example 88, (+/−)-(1RS,2SR,5RS)-2-{[4-Oxo-6-(trifluoromethyl)-1,2,3-benzotriazin-3(4H)-yl]methyl}-5-[4-(pentylsulphanyl)benzoyl]cyclopentanecarboxylic acid]

Source: patent publication US20170022171A1, “2,5-DISUBSTITUTED CYCLOPENTANECARBOXYLIC ACIDS AND THEIR USE” (Bayer Pharma Aktiengesellschaft, priority 2014, published 2017)
